This note sets out measurements from US20040022788A1, “Compositions and methods for promoting or inhibiting angiogenesis” (priority 1998, published 2004).

For assay [1], the target named is T1, purified bovine F1 ATP synthase (Bos taurus, UniProt P00829+P19483).
T1 construct: from tissue; host or cells: bovine heart mitochondria
Kind of assay: ELISA binding of angiostatin to purified F1 ATP synthase. As to conditions: double-reciprocal plots; 1 μg F1 ATP synthase per well; read-out: apparent dissociation constant Kd(app). On the procedure: FIG. 11 is a bar graph showing the binding of angiostatin to purified bovine F1 ATP synthase. ELISA was used to determine concentration-dependent binding of angiostatin to a constant amount of F1 ATP synthase. Each well was coated with 1 μg of F1 ATP synthase prior to addition of […] amounts of angiostatin.
ELISA Binding Studies. Binding studies were performed with purified F1 subunit of bovine ATP synthase ([…]) passively adsorbed onto polyvinylchloride microtiter 96-well flat bottom plates (Dynex Technologies, Inc, Chantilly, Va.) as previously described (22). Briefly, plates were coated with protein in 50 μl of 0.1M Na2CO3, pH9.6 and incubated 2 h at 37° C. Non-specific sites were blocked by incubating with PBS, pH 7.0 containing 1% BSA for 30 min at rt. Binding studies were performed with increasing amounts of angiostatin (0-0.5 mg/ml) added in a […] for 1 h at 37° C. Plates were washed (0.1% Tween20/PBS, pH 7.0) and incubated with anti-human angiostatin antibody (goat IgG) (R&D Systems, Minneapolis, Minn.) (1:200 dil) overnight at 4° C. […] Plates were washed and 150 μl of OPD substrate was added to each well and the reaction stopped with 25 μl of H2SO4 (25%), before monitoring the absorbance at λ=492 nm in a Molecular Devices SpectraMax Plus-384 plate reader. […]
(In an ELISA, binding on a coated surface is turned into a signal by an enzyme label.)

In assay [2] the test system is HUVEC. Nature of the assay: HUVEC cell proliferation assay (CyQUANT). The class given is cell-based, human. As to conditions: 1 μM; 24 hrs; n = 3. On the procedure:
Cell Proliferation Assay. HUVEC were plated at a density of 5000 cells/well in media depleted of fetal calf serum (FCS) overnight to allow the cells to become quiescent. Fresh media containing 5% FCS, 10 ng/ml basic fibroblast growth factor (bFGF) and 3 ng/ml vascular endothelial growth factor (VEGF) were added to the wells along with angiostatin (1.0 μM), antibody directed against the recombinant human alpha-subunit of ATP synthase (1:10 dil), antibody directed against the recombinant human beta-subunit of ATP synthase (1:10 dil), pre-immune serum (1:10 dil) or cycloheximide ([…]). Cell density was measured after 24 hrs using CyQUANT Cell Proliferation Assay Kit (Molecular Probes) in a fluorometric plate reader (Molecular Devices). The absorbance values used to calculate the percent proliferation of the cells ranged from 1.24 or 1.00 for treated and 2.57 for untreated.

Assay [3] deals with HUVEC. Nature of the assay: HUVEC proliferation assay (MTS/PMS). Format: cell-based, human. The note with it: for Percent proliferation inhibited, ±SEM, Without Antibody: 24 h. On the procedure: Proliferation Assay. HUVEC were plated at a density of 5,000 cells/well in media depleted of FCS overnight to allow the cells to become quiescent. […] In some experiments antibody directed against the alpha subunit of ATP synthase derived from E. coli was also added at a dilution of 1:10. MTS/PMS [(3-(4,5-dimethylthiazol-2-yl)-5-(3-carboxymethoxyphenyl)-2-(4-sulfophenyl)-2H-tetrazolium inner salt/phenazine methosulfate] solution was added after 24 h, and the absorbance of formazan was quantitated on a Thermomax plate reader at a wavelength of 490 nm according to the manufacturer's specifications (Promega). The absorbance values used to calculate the percent proliferation of the cells ranged from 0.81 for untreated, 0.60 for treated, and 0.47 for baseline quiescent cells.
Anti-alpha-subunit ATP synthase antibody derived from E. coli was added concomitantly at a dilution of 1:10. MTS/PMS solution was added and absorbance of formazan was quantitated according to the manufacturer's specifications. Results represent three separate experiments performed in duplicate with SEM. Percent recovery represents the ability of the anti-alpha-subunit ATP synthase antibody to block the antiproliferative effect of angiostatin, and thereby restore proliferation to an average of 81% of that obtained with the control cells.

Regarding angiostatin, in assay [1], the Kd came out at 12 nM. In addition, the “Percent Inhibition (+/− S.E.M.) of HUVEC proliferation” value with HUVEC [2] is given as 57.2 +/− 1.16%. The “Percent proliferation inhibited, ±SEM, With antibody” value in the assay on HUVEC [3] (angiostatin 0.5 μM plus anti-alpha subunit ATP synthase antibody 1:10) is 1 ± 0.2%; with HUVEC [3] (angiostatin 0.75 μM plus anti-alpha subunit ATP synthase antibody 1:10), 5 ± 4.1%; with HUVEC [3] (angiostatin 1.0 μM plus anti-alpha subunit ATP synthase antibody 1:10), 6 ± 0.8%. Moreover, the results for the “Percent proliferation inhibited, ±SEM, Without Antibody” value with HUVEC [3] (angiostatin 0.5 μM), in the assay on HUVEC [3] (angiostatin 0.75 μM) and in the assay on HUVEC [3] (angiostatin 1.0 μM) were 10 ± 1.4%, 25 ± 4.2% and 23 ± 9.0%, respectively.
